In the NIST ThermoML archive (doi:10.1021/je060271a):
Values joined by “and” are separate entries in the source; they are usually repeats but may differ in a detail not shown here. Equal values may be shown once.

Details: Liquid, Vibrating tube method

CCCC(=O)OCC(COC(=O)CCC)(COC(=O)CCC)COC(=O)CCC [pentaerythritol tetrabutyrate]
Details | mass density
323.15 K, 30112 kPa | 1045 kg/m3
323.15 K, 30149 kPa | 1045.1 kg/m3
323.15 K, 30193 kPa | 1045.1 kg/m3
323.15 K, 30232 kPa | 1045.2 kg/m3
323.15 K, 30562 kPa | 1045.3 kg/m3
323.15 K, 30601 kPa | 1045.3 kg/m3
323.15 K, 30640 kPa | 1045.5 kg/m3
323.15 K, 30680 kPa | 1045.4 kg/m3
323.15 K, 30730 kPa | 1045.5 kg/m3
323.15 K, 30771 kPa | 1045.5 kg/m3
323.15 K, 30818 kPa | 1045.4 kg/m3
323.15 K, 30850 kPa | 1045.6 kg/m3
323.15 K, 30881 kPa | 1045.6 kg/m3
323.15 K, 30918 kPa | 1045.7 kg/m3
323.15 K, 30948 kPa | 1045.6 kg/m3
323.15 K, 30979 kPa | 1045.6 kg/m3
323.15 K, 31009 kPa | 1045.7 kg/m3
323.15 K, 31047 kPa | 1045.6 kg/m3
323.15 K, 31079 kPa | 1045.6 kg/m3
323.15 K, 31110 kPa | 1045.6 kg/m3
323.15 K, 31146 kPa | 1045.7 kg/m3
323.15 K, 31178 kPa | 1045.9 kg/m3
323.15 K, 31209 kPa | 1045.6 kg/m3
323.15 K, 31247 kPa | 1045.7 kg/m3
323.15 K, 31278 kPa | 1045.7 kg/m3
323.15 K, 31310 kPa | 1045.8 kg/m3
323.15 K, 31347 kPa | 1045.9 kg/m3
323.15 K, 31379 kPa | 1045.9 kg/m3
323.15 K, 31411 kPa | 1045.8 kg/m3
323.15 K, 31450 kPa | 1045.8 kg/m3
323.15 K, 31481 kPa | 1045.9 kg/m3
323.15 K, 31513 kPa | 1045.9 kg/m3
323.15 K, 31546 kPa | 1046 kg/m3
323.15 K, 31584 kPa | 1045.9 kg/m3
323.15 K, 31616 kPa | 1046 kg/m3
323.15 K, 31649 kPa | 1046 kg/m3
323.15 K, 31690 kPa | 1046 kg/m3
323.15 K, 31725 kPa | 1046 kg/m3
323.15 K, 31758 kPa | 1046 kg/m3
323.15 K, 31791 kPa | 1046 kg/m3
323.15 K, 31830 kPa | 1046.2 kg/m3
323.15 K, 31863 kPa | 1046.2 kg/m3
323.15 K, 31896 kPa | 1046.1 kg/m3
323.15 K, 31936 kPa | 1046.2 kg/m3
323.15 K, 31970 kPa | 1046.2 kg/m3
323.15 K, 32003 kPa | 1046.3 kg/m3
323.15 K, 32043 kPa | 1046.2 kg/m3
323.15 K, 32151 kPa | 1046.3 kg/m3
323.15 K, 32179 kPa | 1046.3 kg/m3
323.15 K, 32219 kPa | 1046.4 kg/m3
323.15 K, 32253 kPa | 1046.3 kg/m3
323.15 K, 32288 kPa | 1046.4 kg/m3
323.15 K, 32328 kPa | 1046.5 kg/m3
323.15 K, 32362 kPa | 1046.4 kg/m3
323.15 K, 32403 kPa | 1046.5 kg/m3
323.15 K, 32437 kPa | 1046.5 kg/m3
323.15 K, 32472 kPa | 1046.5 kg/m3
323.15 K, 32506 kPa | 1046.5 kg/m3
323.15 K, 32548 kPa | 1046.5 kg/m3
323.15 K, 32583 kPa | 1046.6 kg/m3
323.15 K, 32618 kPa | 1046.6 kg/m3
323.15 K, 32660 kPa | 1046.7 kg/m3
323.15 K, 32694 kPa | 1046.6 kg/m3
323.15 K, 32737 kPa | 1046.6 kg/m3
323.15 K, 32772 kPa | 1046.7 kg/m3
323.15 K, 32808 kPa | 1046.9 kg/m3
323.15 K, 32843 kPa | 1046.6 kg/m3
323.15 K, 32886 kPa | 1046.8 kg/m3
323.15 K, 32921 kPa | 1046.8 kg/m3
323.15 K, 33152 kPa | 1046.9 kg/m3
323.15 K, 33188 kPa | 1047 kg/m3
323.15 K, 33232 kPa | 1046.9 kg/m3
323.15 K, 33268 kPa | 1047 kg/m3
323.15 K, 33305 kPa | 1046.9 kg/m3
323.15 K, 33386 kPa | 1047 kg/m3
323.15 K, 33430 kPa | 1047.1 kg/m3
323.15 K, 33468 kPa | 1047.2 kg/m3
323.15 K, 33504 kPa | 1047.1 kg/m3
323.15 K, 33549 kPa | 1047.2 kg/m3
323.15 K, 33587 kPa | 1047.2 kg/m3
323.15 K, 33625 kPa | 1047.2 kg/m3
323.15 K, 33664 kPa | 1047.2 kg/m3
323.15 K, 33690 kPa | 1047.2 kg/m3
323.15 K, 33710 kPa | 1047.3 kg/m3
323.15 K, 33750 kPa | 1047.2 kg/m3
323.15 K, 33797 kPa | 1047.3 kg/m3
323.15 K, 33837 kPa | 1047.4 kg/m3
323.15 K, 34013 kPa | 1047.4 kg/m3
323.15 K, 34067 kPa | 1047.4 kg/m3
323.15 K, 34113 kPa | 1047.7 kg/m3
323.15 K, 34161 kPa | 1047.5 kg/m3
323.15 K, 34221 kPa | 1047.5 kg/m3
323.15 K, 34272 kPa | 1047.7 kg/m3
323.15 K, 34276 kPa | 1047.6 kg/m3
323.15 K, 34313 kPa | 1047.6 kg/m3
323.15 K, 34342 kPa | 1047.6 kg/m3
323.15 K, 34379 kPa | 1047.7 kg/m3
323.15 K, 34410 kPa | 1047.7 kg/m3
323.15 K, 34436 kPa | 1047.7 kg/m3
323.15 K, 34450 kPa | 1047.8 kg/m3
323.15 K, 34468 kPa | 1047.9 kg/m3
323.15 K, 34568 kPa | 1047.8 kg/m3
323.15 K, 34570 kPa | 1047.8 kg/m3 and 1047.9 kg/m3
323.15 K, 34571 kPa | 1047.7 kg/m3
323.15 K, 34572 kPa | 1047.7 kg/m3 and 1047.9 kg/m3 and 1047.8 kg/m3
343.13 K, 2755.8 kPa | 1010.1 kg/m3
343.13 K, 2840 kPa | 1010.2 kg/m3
343.13 K, 4339.6 kPa | 1011.5 kg/m3
343.14 K, 104.4 kPa | 1008.1 kg/m3
343.14 K, 105.3 kPa | 1008.1 kg/m3
343.14 K, 105.8 kPa | 1008.1 kg/m3
343.14 K, 106.3 kPa | 1008.1 kg/m3
343.14 K, 107.5 kPa | 1008.2 kg/m3
343.14 K, 108.6 kPa | 1008.2 kg/m3
343.14 K, 110.3 kPa | 1008.1 kg/m3
343.14 K, 112.9 kPa | 1008.2 kg/m3
343.14 K, 116.2 kPa | 1008.1 kg/m3
343.14 K, 121.8 kPa | 1008.1 kg/m3
343.14 K, 129.6 kPa | 1008.1 kg/m3
343.14 K, 141.1 kPa | 1008.3 kg/m3
343.14 K, 155.9 kPa | 1008.2 kg/m3
343.14 K, 167 kPa | 1008.1 kg/m3
343.14 K, 181.6 kPa | 1008.1 kg/m3
343.14 K, 200 kPa | 1008.2 kg/m3
343.14 K, 216 kPa | 1008.1 kg/m3
343.14 K, 226.6 kPa | 1008.2 kg/m3
343.14 K, 238.6 kPa | 1008.3 kg/m3
343.14 K, 252.1 kPa | 1008.2 kg/m3
343.14 K, 267.4 kPa | 1008.2 kg/m3
343.14 K, 284.6 kPa | 1008.3 kg/m3
343.14 K, 304.8 kPa | 1008.3 kg/m3
343.14 K, 328.1 kPa | 1008.2 kg/m3
343.14 K, 354.2 kPa | 1008.2 kg/m3
343.14 K, 383.4 kPa | 1008.3 kg/m3
343.14 K, 404.4 kPa | 1008.4 kg/m3
343.14 K, 419.5 kPa | 1008.4 kg/m3
343.14 K, 436.2 kPa | 1008.5 kg/m3
343.14 K, 541.8 kPa | 1008.4 kg/m3
343.14 K, 568.7 kPa | 1008.5 kg/m3
343.14 K, 598.4 kPa | 1008.6 kg/m3
343.14 K, 626.6 kPa | 1008.5 kg/m3
343.14 K, 662.6 kPa | 1008.4 kg/m3
343.14 K, 698.7 kPa | 1008.5 kg/m3
343.14 K, 717.3 kPa | 1008.6 kg/m3
343.14 K, 736.7 kPa | 1008.6 kg/m3
343.14 K, 752.7 kPa | 1008.6 kg/m3
